The source of these data is US7104958B2, “Systems and methods for investigating intracranial pressure” (New Health Sciences, Inc., priority 2001, dated 2006).

This test concerns cerebral vessels. The procedure: These are the symptoms upon presentation in the neurological clinic. Transcranial Doppler analysis of all cerebral vessels is performed in addition to analyzing the common carotid artery and the internal carotid artery.
The physician considers prescription of Plavix together with a calcium channel blocker. Transcranial Doppler analysis was performed at monthly intervals. […] The physician subsequently administers a higher dose. Again, transcranial Doppler analysis is performed on all cerebral vessels.
The patient is then monitored on a monthly basis after the initial prescription of Plavix in order to determine whether vascular changes are occurring which necessitate alteration in the therapy.

[1] abbreviates: same patient, higher dose, transcranial Doppler on all cerebral vessels.

The structures appear in SMILES notation.

For `COC(=O)[C@H](c1ccccc1Cl)N1CCc2sccc2C1` [Plavix], the “changes in the individual cerebral vessels” value (person after first stroke, Plavix +/- calcium channel blocker, initial dose, transcranial Doppler at monthly intervals) was “no effect on the cerebral vessels”. For the same molecule, under setting [1], the auto-regulation curve entry is on record as “left-shifts toward normal” and the pulsatility index result was “decreases”.
